This passage reports Dmax and DC50 results from patent US12448399B2, “Cereblon-based KRAS degrading PROTACs and uses related thereto” (Arvinas Operations, Inc., priority 2023, dated 2025).

The target in the test is T1, KRas-G12D (Homo sapiens, UniProt P01116, G12D).
T1 construct: insert the HiBiT tag onto the N-terminus of one or more of the endogenous KRas alleles; host or cells: AsPC-1 HiBiT-KRasG12D knock-in clone (one tagged allele, two untagged KRasG12D alleles)
Kind of test: HiBiT Degradation Assay (G12D), AsPC-1 HiBiT-KRasG12D cells, 24 hr. The test is classed as cell-based. As to conditions: for Dmax: ASPC1, AsPC-1 cells, maximum degradation observed; for DC50: AsPC-1 cells. Summed up: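 Degradation was read after 24 hr compound exposure (0.5% DMSO, 37° C) by Nano-Glo HiBiT lytic luminescence in AsPC-1 cells carrying a HiBiT tag on one of three KRasG12D alleles. Signal relative to DMSO gave DC50 and Dmax by 4-parameter fit; alamar blue fluorescence monitored cytotoxicity.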

Usually Dmax stands for the greatest extent of degradation seen. Higher therefore signals a fuller loss of target. In general, DC50 refers to the concentration giving 50% degradation. A higher DC50 goes with a less potent degrader.

Bounds are passed on as bounds.

T1 sequence (P01116 1-188 isoform P01116-2 G12D): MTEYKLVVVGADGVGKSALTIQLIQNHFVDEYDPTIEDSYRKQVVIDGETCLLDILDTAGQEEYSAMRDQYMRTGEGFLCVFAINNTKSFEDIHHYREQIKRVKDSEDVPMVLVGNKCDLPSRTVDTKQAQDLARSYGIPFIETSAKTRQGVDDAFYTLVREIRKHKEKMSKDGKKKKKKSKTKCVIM

For the compound `CCc1c(F)ccc2cc(O)cc(-c3ncc4c(N5CC6CCC(C5)N6)nc(OC[C@@H]5C[C@@H](OC6CCN(CC7CCN(c8ccc9c(c8Cl)CN(C8CCC(=O)NC8=O)C9=O)CC7)CC6)CN5C)nc4c3F)c12` (stereo partly drawn) [Compound 177, 3-(4-chloro-5-{4-[(4-{[(3R,5S)-5-{[(4-{3,8-diazabicyclo[3.2.1]octan-3-yl}-7-(8-ethyl-7-fluoro-3-hydroxynaphthalen-1-yl)-8-fluoropyrido[4,3-d]pyrimidin-2-yl)oxy]methyl}-1-methylpyrrolidin-3-yl]oxy}piperidin-1-yl)methyl]piperidin-1-yl}-1-oxo-2,3-dihydro-1H-isoindol-2-yl)piperidine-2,6-dione], the Dmax is greater than 70% and the DC50 is less than 5.1 µM.

`CCc1c(F)ccc2cc(O)cc(-c3ncc4c(N5CC6CCC(C5)N6)nc(OC[C@@H]5C[C@@H](OC6CCN(CC7CCN(c8ccc9c(c8F)CN(C8CCC(=O)NC8=O)C9=O)CC7)CC6)CN5C)nc4c3F)c12` (stereo partly drawn) [Compound 178, 3-(5-{4-[(4-{[(3R,5S)-5-{[(4-{3,8-diazabicyclo[3.2.1]octan-3-yl}-7-(8-ethyl-7-fluoro-3-hydroxynaphthalen-1-yl)-8-fluoropyrido[4,3-d]pyrimidin-2-yl)oxy]methyl}-1-methylpyrrolidin-3-yl]oxy}piperidin-1-yl)methyl]piperidin-1-yl}-4-fluoro-1-oxo-2,3-dihydro-1H-isoindol-2-yl)piperidine-2,6-dione] came in with a Dmax greater than 70% and a DC50 of less than 5.1 µM.

For the compound `CCc1c(F)ccc2cc(O)cc(-c3ncc4c(N5CC6CCC(C5)N6)nc(OCCN5CCC(C)(CC6CCN(CC7CCN(c8ccc9c(c8)n(C)c(=O)n9C8CCC(=O)NC8=O)CC7)CC6)CC5)nc4c3F)c12` (centres unmarked) [Compound 179, 3-{5-[4-({4-[(1-{2-[(4-{3,8-diazabicyclo[3.2.1]octan-3-yl}-7-(8-ethyl-7-fluoro-3-hydroxynaphthalen-1-yl)-8-fluoropyrido[4,3-d]pyrimidin-2-yl)oxy]ethyl}-4-methylpiperidin-4-yl)methyl]piperidin-1-yl}methyl)piperidin-1-yl]-3-methyl-2-oxo-2,3-dihydro-1H-1,3-benzodiazol-1-yl}piperidine-2,6-dione], the Dmax was greater than 70% and the 50% degradation concentration (DC50) was less than 5.1 µM.

For the compound `CCc1c(F)ccc2cc(O)cc(-c3ncc4c(N5CC6CCC(C5)N6)nc(OCCN5CCC(C)(CN6CCN(CC7CCN(c8ccc9c(c8)n(C)c(=O)n9C8CCC(=O)NC8=O)CC7)CC6)CC5)nc4c3F)c12` (centres unmarked) [Compound 180, 3-{5-[4-({4-[(1-{2-[(4-{3,8-diazabicyclo[3.2.1]octan-3-yl}-7-(8-ethyl-7-fluoro-3-hydroxynaphthalen-1-yl)-8-fluoropyrido[4,3-d]pyrimidin-2-yl)oxy]ethyl}-4-methylpiperidin-4-yl)methyl]piperazin-1-yl}methyl)piperidin-1-yl]-3-methyl-2-oxo-2,3-dihydro-1H-1,3-benzodiazol-1-yl}piperidine-2,6-dione], the Dmax is greater than 70% and the DC50 is less than 5.1 µM.

`CCc1c(F)ccc2cc(O)cc(-c3ncc4c(N5CC6CCC(C5)N6)nc(OCCN5CCC(F)(CN6CCN(CC7CCN(c8ccc9c(c8)n(C)c(=O)n9C8CCC(=O)NC8=O)CC7)CC6)CC5)nc4c3F)c12` (centres unmarked) [Compound 181, 3-{5-[4-({4-[(1-{2-[(4-{3,8-diazabicyclo[3.2.1]octan-3-yl}-7-(8-ethyl-7-fluoro-3-hydroxynaphthalen-1-yl)-8-fluoropyrido[4,3-d]pyrimidin-2-yl)oxy]ethyl}-4-fluoropiperidin-4-yl)methyl]piperazin-1-yl}methyl)piperidin-1-yl]-3-methyl-2-oxo-2,3-dihydro-1H-1,3-benzodiazol-1-yl}piperidine-2,6-dione] displayed a Dmax greater than 70% and a half-maximal degradation concentration (DC50) of less than 5.1 µM.

As to `CCc1c(F)ccc2cc(O)cc(-c3ncc4c(N5CC6CCC(C5)N6)nc(OCCN5CCC(F)(CC6CCN(CC7CCN(c8ccc9c(c8)n(C)c(=O)n9C8CCC(=O)NC8=O)CC7)CC6)CC5)nc4c3F)c12` (centres unmarked) [Compound 182, 3-{5-[4-({4-[(1-{2-[(4-{3,8-diazabicyclo[3.2.1]octan-3-yl}-7-(8-ethyl-7-fluoro-3-hydroxynaphthalen-1-yl)-8-fluoropyrido[4,3-d]pyrimidin-2-yl)oxy]ethyl}-4-fluoropiperidin-4-yl)methyl]piperidin-1-yl}methyl)piperidin-1-yl]-3-methyl-2-oxo-2,3-dihydro-1H-1,3-benzodiazol-1-yl}piperidine-2,6-dione], the Dmax was greater than 70% and the DC50 was less than 5.1 µM.

Turning to `C#Cc1c(F)ccc2cc(O)cc(-c3ncc4c(N5CC6CCC(C5)N6)nc(OCCN5CCC(F)(CN6CCC(CC7CCN(c8ccc9c(c8)n(C)c(=O)n9C8CCC(=O)NC8=O)CC7)CC6)CC5)nc4c3F)c12` (centres unmarked) [Compound 183, 3-{5-[4-({1-[(1-{2-[(4-{3,8-diazabicyclo[3.2.1]octan-3-yl}-7-(8-ethynyl-7-fluoro-3-hydroxynaphthalen-1-yl)-8-fluoropyrido[4,3-d]pyrimidin-2-yl)oxy]ethyl}-4-fluoropiperidin-4-yl)methyl]piperidin-4-yl}methyl)piperidin-1-yl]-3-methyl-2-oxo-2,3-dihydro-1H-1,3-benzodiazol-1-yl}piperidine-2,6-dione], the Dmax is greater than 70% and the DC50 is less than 5.1 µM.

With `C#Cc1c(F)ccc2cc(O)cc(-c3ncc4c(N5CC6CCC(C5)N6)nc(OC[C@@H](C)N5CCC(CC6CCN(CC7CCN(c8ccc9c(c8)n(C(C)C)c(=O)n9C8CCC(=O)NC8=O)CC7)CC6)CC5)nc4c3F)c12` (stereo partly drawn) [Compound 184, 3-[5-(4-{[4-({1-[(2R)-1-[(4-{3,8-diazabicyclo[3.2.1]octan-3-yl}-7-(8-ethynyl-7-fluoro-3-hydroxynaphthalen-1-yl)-8-fluoropyrido[4,3-d]pyrimidin-2-yl)oxy]propan-2-yl]piperidin-4-yl}methyl)piperidin-1-yl]methyl}piperidin-1-yl)-2-oxo-3-(propan-2-yl)-2,3-dihydro-1H-1,3-benzodiazol-1-yl]piperidine-2,6-dione], the Dmax is greater than 70% and the DC50 was less than 5.1 µM.

Consider `C#Cc1c(F)ccc2cc(O)cc(-c3ncc4c(N5CC6CCC(C5)N6)nc(OC[C@@H](C)N5CCC(CC6CCN(CC7CCN(c8ccc9c(c8F)CN(C8CCC(=O)NC8=O)C9=O)CC7)CC6)CC5)nc4c3F)c12` (stereo partly drawn) [Compound 185, 3-[5-(4-{[4-({1-[(2R)-1-[(4-{3,8-diazabicyclo[3.2.1]octan-3-yl}-7-(8-ethynyl-7-fluoro-3-hydroxynaphthalen-1-yl)-8-fluoropyrido[4,3-d]pyrimidin-2-yl)oxy]propan-2-yl]piperidin-4-yl}methyl)piperidin-1-yl]methyl}piperidin-1-yl)-4-fluoro-1-oxo-2,3-dihydro-1H-isoindol-2-yl]piperidine-2,6-dione], for which the Dmax was greater than 70% and the DC50 was less than 5.1 µM.

`C#Cc1c(F)ccc2cc(O)cc(-c3ncc4c(N5CC6CCC(C5)N6)nc(OCC5(CN6CCN(CC7CCN(c8ccc9c(c8Cl)CN(C8CCC(=O)NC8=O)C9=O)CC7)CC6)CC5)nc4c3F)c12` (centres unmarked) [Compound 186, 3-{4-chloro-5-[4-({4-[(1-{[(4-{3,8-diazabicyclo[3.2.1]octan-3-yl}-7-(8-ethynyl-7-fluoro-3-hydroxynaphthalen-1-yl)-8-fluoropyrido[4,3-d]pyrimidin-2-yl)oxy]methyl}cyclopropyl)methyl]piperazin-1-yl}methyl)piperidin-1-yl]-1-oxo-2,3-dihydro-1H-isoindol-2-yl}piperidine-2,6-dione] had a Dmax greater than 70% and a DC50 of less than 5.1 µM.
